Paper PMC8952364, “Polyphenols as Inhibitors of Antibiotic Resistant Bacteria—Mechanisms Underlying Rutin Interference with Bacterial Virulence” (Pharmaceuticals, 2022)
Values after ≈ are worked out from the molar mass of the structure shown.

Key:
[1] = test system: P. aeruginosa IBRS P001 rhamnolipid production; experiment: Rhamnolipid assay; format: cell-based, Pseudomonas aeruginosa; conditions: 0.25 mg/mL (0.5 MIC), compared to the control
Protocol: Culture supernatants of the previously cultivated P. aeruginosa IBRS P001 strain incubated with rutin 0.250 mg/mL were acidified by using HCl to pH 2.0 [72]. Rhamnolipid production was measured spectrophotometrically at 570 nm by a Plate Reader Infinite 200 pro (MTX Lab Systems, Vienna, VA, USA). A solvent treated culture supernatant was used as a positive control.

S. infantis 1371/1 = experiment: Antimicrobial microdilution assay (MIC/MBC); format: cell-based, Salmonella Infantis; conditions: Salmonella enterica, 1371/1
Procedure, shortened: (§1)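 Polyphenols 0.0039–1 mg/mL, stocks in 30% ethanol; inoculum 0.5 McFarland diluted twenty-fold, mixed 1:10; 24 h, 37 °C. MIC = no visible growth (binocular microscope). Streptomycin positive control, ethanol negative control; triplicate.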

[2] = test system: P. aeruginosa IBRS P001 biofilm; experiment: Congo red binding assay, exopolysaccharide production (biofilm formation); format: cell-based, Pseudomonas aeruginosa
Protocol: (§2) The estimation of rutin’s impact on biofilm exopolysaccharide production (EPS) was determined by the Congo red binding assay. P. aeruginosa IBRS P001 biofilm EPS production was determined as previously described. […] The planktonic cells were removed, and the adherent cells were washed with PBS. Wells were stained with 1% (w/v) Congo red (SigmaAldrich, Germany) in the dark for 30 min. Wells were aspirated and subsequently the bound dye was solubilized with 200 μL DMSO. Absorbance at 490 nm was measured in a microtiter plate reader Multiskan™ FC microplate photometer (Thermo Scientific™, United States) and the inhibition percentage of EPS production was calculated according to the following equation:%Inhibition = [(A490control − A490sample)/A490control] × 100
With A490control representing the absorbance of the untreated biofilm and A490sample the absorbance of the rutin treated sample. The solvent treated sample was used as the control.

[3] = test system: P. aeruginosa IBRS P001 elastase production; experiment: Elastase assay (Elastin-Congo red); format: cell-based, Pseudomonas aeruginosa; conditions: 0.25 mg/mL (0.5 MIC), compared to the control
Protocol: After 48 h of incubation (37 °C, 180 rpm), the mixtures were collected and centrifuged at 15,700× g for 15 min. Quantification of the elastase activity was measured at 495 nm using a Plate Reader Infinite 200 pro (MTX Lab Systems, Vienna, VA, USA). An untreated culture supernatant was used as a positive control (supplemented with the solvent). The experiment was done in triplicate.

[4] = test system: 24 h old P. aeruginosa IBRS P001 biofilms; experiment: Biofilm eradication, Congo red binding assay (exopolysaccharide); format: cell-based, Pseudomonas aeruginosa
Protocol: as §2
The bacterial cells were incubated in TSB enriched with 2% glucose in 96-well plates (Sarstedt, Germany) with adhesive bottom at 37 °C for 24 h. After incubation, wells were washed with PBS, and rutin (MBC–4 MBC) in TSB with 2% glucose was added. Incubation continued at 37 °C for another 24 h. The planktonic cells were removed.
The assays continued as described above for the crystal violet antibiofilm assay for the measurement of biofilm mass, biofilm MTT assay for the interference with cell viability, Congo red binding assay for estimation of exopolysaccharide production, and eDNA assay.

[5] = test system: Methicillin resistant S. aureus IBRS MRSA 011; experiment: Antimicrobial microdilution assay (MIC/MBC); format: cell-based, Staphylococcus aureus; conditions: Staphylococcus aureus, MRSA
Procedure, shortened: as §1

[6] = subcultivation, 24 h at 37 °C, read-out: MBC

C[C@@H]1O[C@@H](OC[C@H]2O[C@@H](Oc3c(-c4ccc(O)c(O)c4)oc4cc(O)cc(O)c4c3=O)[C@H](O)[C@@H](O)[C@@H]2O)[C@H](O)[C@H](O)[C@H]1O [Rutin, rutin]
decrease of rhamnolipid production [1]: 74.4% | MIC (S. infantis 1371/1; 37 °C, 24 h, read-out: MIC): 1000 µg/mL (≈ 1640 µM) | MBC (S. infantis 1371/1; [6]): 1000 µg/mL (≈ 1640 µM) | exopolysaccharide level, % of production compared to vehicle treated control ([2]; 0.25 MIC): 72% | exopolysaccharide level, % of production compared to vehicle treated control ([2]; 0.5 MIC): 56% | exopolysaccharide level, % of production compared to vehicle treated control ([2]; MIC): 50% | inhibition at 250 µg/mL ([2]; Pseudomonas aeruginosa, IBRSP001BIOFILM, read-out: inhibition of produced exopolysaccharides): 44% | reduction of elastase production [3]: 91% | exopolysaccharide production decreased to ([4]; 2 MBC): 65% | exopolysaccharide production decreased to ([4]; 4 MBC): 69% | exopolysaccharide production decreased to ([4]; MBC): 89% | MIC ([5]; 37 °C, 24 h, read-out: MIC): 500 µg/mL (≈ 819 µM) | MBC [5, 6]: 1000 µg/mL (≈ 1640 µM)
